Results taken from the NIST ThermoML archive (doi:10.1016/j.jct.2013.02.020).
± gives the expanded uncertainty stated by the source.

Key:
[1] = 298.15 K; for surface tension liquid-gas: Wilhelmy plate method; for mass density: 100 kPa, Liquid, Vibrating tube method
[2] = refractive index (Na D-line) (dimensionless); settings: 298.15 K; 100 kPa; Liquid; Standard Abbe refractometry

Row | SMILES | surface tension liquid-gas [1] | mass density [1] | refractive index [2]
1 | CC(=O)[O-].CCn1cc[n+](C)c1 [1-ethyl-3-methylimidazolium acetate] | 43.5 ± 0.2 mN/m | 1097.37 ± 2.2 kg/m3 | 1.5012 ± 0.0005
2 | CCOS(=O)(=O)[O-].CCn1cc[n+](C)c1 [1-ethyl-3-methylimidazolium ethyl sulfate] | 48.4 ± 0.2 mN/m | 1234.53 ± 2.2 kg/m3 | 1.4771 ± 0.0005
3 | CCn1cc[n+](C)c1.CS(=O)(=O)[O-] [1-ethyl-3-methylimidazolium methanesulfonate] | 51.2 ± 0.3 mN/m | 1242.52 ± 2.2 kg/m3 | 1.4962 ± 0.0005
4 | c1ccncc1 [pyridine] | 37.5 ± 0.4 mN/m | 978.25 ± 2.3 kg/m3 | 1.5072 ± 0.0006
5 | c1ccsc1 [thiophene] | 31.7 ± 0.3 mN/m | 1058.44 ± 2.4 kg/m3 | 1.5271 ± 0.0006
